Data from US20260306641A1, “HELICASE DEGRADERS” (priority 2023, published 2026).

Assays:
DNA Polymerase-theta = details: higher doses; cited from earlier work
[1] = tested on: CMG proteins in 143B cells; experiment: Immunoblot of chromatin-bound proteins, asynchronous 143B OS cells; type: cell-based, human; details: 24 hrs
Experimental: (§1) FIGS. 7A-7C depict that CMGi induce DNA damage and selectively reduce tumor cell viability. (FIG. 7A) Cell Titer Glo viability assays for CA1/CMGi sensitivity were performed on 143B (OS), Psn1 (PDAC), and H460 (NSCLC) tumor lines. Novobiocin was tested against 143B cells as a comparison. (FIG. 7B) Immunoblot of chromatin-bound proteins (as indicated) from asynchronous 143B OS cells treated with 10 μM novobiocin or increasing concentrations of CA1 for 24 hrs. (FIG. 7C) Immunoblot of total proteins from Psn1, H460, 143B, and HaCaT cells treated with 5 μM CA1/CMGi or DMSO/novobiocin controls, or HaCaT treated with 15 μM CA1/CMGi (right side). The Psn1 and H460 cells were treated for 24 hrs, and 143B and HaCaT cells were treated for 48 hrs. Probing of blots was done with anti-gamma-H2AX (DNA damage signal) or anti-cleaved-Parp (apoptotic indicator). Anti-GAPDH is a loading control.

[2] = tested on: Psn1, H460 and 143B tumor lines; experiment: DNA damage (gamma-H2AX) and apoptosis (cleaved Parp) immunoblot, tumor lines; type: cell-based, human; details: 5 μM
Experimental: as §1

[3] = tested on: bacterial type-2 topoisomerase, gyrase; details: cited from earlier work
[4] = tested on: Cdk1 and Cdk2 targets (Rb, Cdc6, PP1a); experiment: Immunoblot of Cdk1/Cdk2-dependent targets, HaCaT cells; type: cell-based, human; details: extended exposure (18 hrs)
Experimental: (§2) Immunoblots of total proteins from synchronized HaCaT cells treated with compounds at time of release (0 hr; beginning of G1 phase) and collected after 18 hrs of exposure. (FIG. 5A) DDK-dependent phosphorylation sites on Mcm2 were analyzed with phospho-specific antibodies. (FIG. 5B) Cdk1- and Cdk2-dependent targets (Rb, Cdc6, and PP1α) were analyzed with phospho-specific antibodies.

[5] = tested on: Dbf4-Cdc7 (DDK); Mcm2 S53 and S139; experiment: Immunoblot of DDK-dependent Mcm2 phosphorylation, HaCaT cells; type: cell-based, human; details: extended exposure (18 hrs)
Experimental: as §2

Row | SMILES | DNA Polymerase-theta inhibition (DNA Polymerase-theta) | MCM levels ([1]; higher CA1 doses) | RPA levels ([1]; low micromolar CA1) | chromatin-bound levels of Cdc45, Psf1 and Psf2 ([1]; low micromolar CA1) | gamma-H2AX and Parp cleavage, tumor lines vs HaCaT [2] | gyrase inhibition [3] | phosphorylation of Cdk2 targets Rb, Cdc6 (S54P) and Cdk1 target PP1a [4] | Mcm2 S53 and S139 phosphorylation [5]
1 | CO[C@@H]1[C@@H](OC(N)=O)[C@@H](O)[C@H](Oc2ccc3c(O)c(NC(=O)c4ccc(O)c(CC=C(C)C)c4)c(=O)oc3c2C)OC1(C)C [novobiocin] | can inhibit a different anti-cancer target, DNA Polymerase-theta | – | – | – | – | – | – | –
2 | CO[C@@H]1[C@@H](OC(=O)c2ccc(C)[nH]2)[C@@H](O)[C@H](Oc2ccc3c(O)c(NC(=O)c4c[nH]c(C(=O)Nc5c(O)c6ccc(O[C@@H]7OC(C)(C)[C@H](OC)[C@@H](OC(=O)c8ccc(C)[nH]8)[C@H]7O)c(C)c6oc5=O)c4C)c(=O)oc3c2C)OC1(C)C [CA1] | – | MCM levels start to diminish | reducing RPA levels in a dose-dependent manner | reducing the chromatin-bound levels of Cdc45, Psf1, and Psf2 | tumor cell-specific increase in DNA damage signals (gamma-H2AX surrogate) and Parp cleavage | known to inhibit the bacterial type-2 topoisomerase, gyrase | no effect on these substrates | no phosphorylation changes
